Assay results reported in ChEMBL document CHEMBL5344441, “Discovery and Preclinical Pharmacology of NX-2127, an Orally Bioavailable Degrader of Bruton's Tyrosine Kinase with Immunomodulatory Activity for the Treatment of Patients with B Cell Malignancies” (J Med Chem, 2024).

Key:
[1] = target: T1, Protein cereblon/Tyrosine-protein kinase BTK (Homo sapiens, UniProt Q06187+Q96SW2); experiment: PROTAC activity at CRBN/BTK in human Ramos cells assessed as degradation of BTK protein incubated for 4 hrs by HTRF assay; assay type: cell-based
Target sequence in this assay (Q06187 whole entry): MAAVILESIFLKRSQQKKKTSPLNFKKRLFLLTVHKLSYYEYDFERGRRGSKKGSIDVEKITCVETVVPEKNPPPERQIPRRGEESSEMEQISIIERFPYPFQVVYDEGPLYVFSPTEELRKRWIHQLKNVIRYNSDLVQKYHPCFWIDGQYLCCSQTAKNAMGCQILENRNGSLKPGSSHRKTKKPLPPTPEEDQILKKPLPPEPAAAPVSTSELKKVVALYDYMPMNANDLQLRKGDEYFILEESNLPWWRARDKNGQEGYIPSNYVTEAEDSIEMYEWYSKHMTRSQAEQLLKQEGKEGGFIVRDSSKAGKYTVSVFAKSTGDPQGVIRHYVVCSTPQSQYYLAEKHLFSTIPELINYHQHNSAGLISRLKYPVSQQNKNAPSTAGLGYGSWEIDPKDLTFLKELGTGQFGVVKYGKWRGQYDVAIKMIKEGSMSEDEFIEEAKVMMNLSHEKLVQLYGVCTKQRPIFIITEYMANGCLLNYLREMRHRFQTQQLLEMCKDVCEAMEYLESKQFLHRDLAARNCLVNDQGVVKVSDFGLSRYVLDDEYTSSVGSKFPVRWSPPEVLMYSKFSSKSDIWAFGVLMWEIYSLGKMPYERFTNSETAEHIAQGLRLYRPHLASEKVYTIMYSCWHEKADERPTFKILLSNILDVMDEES
Target sequence in this assay (Q96SW2 whole entry): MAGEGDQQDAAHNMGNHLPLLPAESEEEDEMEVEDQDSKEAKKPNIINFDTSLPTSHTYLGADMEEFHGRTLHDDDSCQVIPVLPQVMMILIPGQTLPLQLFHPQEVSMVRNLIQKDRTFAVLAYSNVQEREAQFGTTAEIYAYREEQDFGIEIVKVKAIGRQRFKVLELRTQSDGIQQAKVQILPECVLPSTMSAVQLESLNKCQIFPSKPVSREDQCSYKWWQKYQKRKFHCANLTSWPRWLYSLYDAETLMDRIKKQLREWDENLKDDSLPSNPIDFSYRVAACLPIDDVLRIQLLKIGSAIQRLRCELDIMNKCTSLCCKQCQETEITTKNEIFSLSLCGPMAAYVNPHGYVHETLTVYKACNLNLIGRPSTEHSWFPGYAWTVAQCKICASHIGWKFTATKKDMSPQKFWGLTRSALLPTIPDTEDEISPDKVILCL

[2] = target: T1, Protein cereblon/Tyrosine-protein kinase BTK; experiment: PROTAC activity at CRBN/BTK in human Ramos cells assessed as maximal degradation of BTK protein incubated for 4 hrs by HTRF assay relative to control; assay type: cell-based
Target sequence in this assay (Q06187 2-659 limits assumed): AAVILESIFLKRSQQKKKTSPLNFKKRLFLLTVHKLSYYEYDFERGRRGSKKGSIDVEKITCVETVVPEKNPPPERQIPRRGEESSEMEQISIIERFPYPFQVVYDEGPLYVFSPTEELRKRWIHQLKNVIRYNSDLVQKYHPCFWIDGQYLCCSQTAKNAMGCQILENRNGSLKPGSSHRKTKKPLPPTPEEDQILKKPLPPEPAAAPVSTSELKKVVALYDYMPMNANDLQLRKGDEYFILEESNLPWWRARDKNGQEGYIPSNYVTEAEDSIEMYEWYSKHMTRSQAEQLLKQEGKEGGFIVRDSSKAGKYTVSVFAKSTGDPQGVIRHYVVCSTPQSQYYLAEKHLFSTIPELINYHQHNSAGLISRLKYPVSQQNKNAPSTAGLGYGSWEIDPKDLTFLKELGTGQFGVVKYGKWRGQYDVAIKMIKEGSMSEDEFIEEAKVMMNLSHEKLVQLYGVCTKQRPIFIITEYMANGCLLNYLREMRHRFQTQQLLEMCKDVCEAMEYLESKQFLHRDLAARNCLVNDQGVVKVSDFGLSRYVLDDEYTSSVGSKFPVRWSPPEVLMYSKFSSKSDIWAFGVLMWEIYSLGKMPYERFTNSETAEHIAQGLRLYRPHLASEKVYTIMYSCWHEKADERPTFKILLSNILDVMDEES
Target sequence in this assay (Q96SW2 whole entry partner): as the sequence (Q96SW2 whole entry) above

[3] = target: T1, Protein cereblon/Tyrosine-protein kinase BTK; experiment: PROTAC activity at CRBN/BTK in human TMD8 cells assessed as degradation of BTK protein incubated for 4 hrs by HTRF assay; assay type: cell-based
Target sequence in this assay (Q06187 whole entry): as the sequence (Q06187 whole entry) above
Target sequence in this assay (Q96SW2 whole entry): as the sequence (Q96SW2 whole entry) above

[4] = target: T1, Protein cereblon/Tyrosine-protein kinase BTK; experiment: PROTAC activity at CRBN/BTK in human TMD8 cells assessed as maximal degradation of BTK protein incubated for 4 hrs by HTRF assay relative to control; assay type: cell-based
Target sequence in this assay (Q06187 2-659 limits assumed): as the sequence (Q06187 2-659 limits assumed) above
Target sequence in this assay (Q96SW2 whole entry partner): as the sequence (Q96SW2 whole entry) above

[5] = target: T2, Protein cereblon/Zinc finger protein Aiolos (Homo sapiens, UniProt Q96SW2+Q9UKT9); experiment: PROTAC activity at CRBN/IKZF3 in human T cell assessed as degradation of IKZF3 protein incubated for 24 hrs by flow cytometry; assay type: cell-based
Target sequence in this assay (Q96SW2 whole entry): as above
Target sequence in this assay (Q9UKT9 whole entry): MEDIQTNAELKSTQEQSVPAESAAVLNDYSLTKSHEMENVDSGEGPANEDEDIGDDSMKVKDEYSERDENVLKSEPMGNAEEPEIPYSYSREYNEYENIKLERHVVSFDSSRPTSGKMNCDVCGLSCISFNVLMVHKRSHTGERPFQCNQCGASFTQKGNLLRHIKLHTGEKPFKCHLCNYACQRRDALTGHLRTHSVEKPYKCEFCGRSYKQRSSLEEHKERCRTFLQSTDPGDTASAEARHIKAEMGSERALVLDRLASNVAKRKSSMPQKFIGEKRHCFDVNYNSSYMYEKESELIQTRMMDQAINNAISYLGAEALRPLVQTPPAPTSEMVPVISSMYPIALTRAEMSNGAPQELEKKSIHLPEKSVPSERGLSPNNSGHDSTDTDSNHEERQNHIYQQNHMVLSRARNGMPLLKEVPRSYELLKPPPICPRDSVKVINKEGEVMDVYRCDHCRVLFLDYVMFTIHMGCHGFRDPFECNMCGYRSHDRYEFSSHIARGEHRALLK

[6] = target: T2, Protein cereblon/Zinc finger protein Aiolos; experiment: PROTAC activity at CRBN/IKZF3 in human T cell assessed as maximal degradation of IKZF3 protein incubated for 24 hrs by flow cytometry relative to control; assay type: cell-based
Target sequence in this assay (Q96SW2 whole entry, looked up): as the sequence (Q96SW2 whole entry) above
Target sequence in this assay (Q9UKT9 whole entry, looked up): as the sequence (Q9UKT9 whole entry) above

[7] = target: Protein cereblon/Tyrosine-protein kinase BTK (Mus musculus) (UniProt P35991+Q8C7D2); experiment: In vivo protac activity at CRBN/BTK in BALB/c mouse assessed as remaining BTK protein in blood at 3 mg/kg,po administration measured after 6 hrs by flow cytomtery relative to control; assay type: functional, organism-based
Protein cereblon/Tyrosine-protein kinase BTK (Mus musculus), sequence (P35991 whole entry, looked up): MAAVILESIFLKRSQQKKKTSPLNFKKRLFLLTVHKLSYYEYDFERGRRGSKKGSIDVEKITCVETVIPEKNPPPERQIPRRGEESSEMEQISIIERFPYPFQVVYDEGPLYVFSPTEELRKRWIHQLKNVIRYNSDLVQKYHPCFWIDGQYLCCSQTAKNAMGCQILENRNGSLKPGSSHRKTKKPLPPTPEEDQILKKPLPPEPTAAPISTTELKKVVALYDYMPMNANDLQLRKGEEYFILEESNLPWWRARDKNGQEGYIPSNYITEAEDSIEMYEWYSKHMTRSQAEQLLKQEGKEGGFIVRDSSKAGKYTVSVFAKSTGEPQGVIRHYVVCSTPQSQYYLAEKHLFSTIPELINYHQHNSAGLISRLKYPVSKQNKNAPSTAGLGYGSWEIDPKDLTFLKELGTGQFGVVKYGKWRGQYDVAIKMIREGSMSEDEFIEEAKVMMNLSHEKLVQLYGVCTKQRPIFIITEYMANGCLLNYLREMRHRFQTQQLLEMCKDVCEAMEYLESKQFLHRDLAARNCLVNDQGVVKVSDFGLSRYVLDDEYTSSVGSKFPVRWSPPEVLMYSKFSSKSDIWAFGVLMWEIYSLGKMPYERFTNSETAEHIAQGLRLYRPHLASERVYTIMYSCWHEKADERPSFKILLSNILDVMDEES
Protein cereblon/Tyrosine-protein kinase BTK (Mus musculus), sequence (Q8C7D2 whole entry, looked up): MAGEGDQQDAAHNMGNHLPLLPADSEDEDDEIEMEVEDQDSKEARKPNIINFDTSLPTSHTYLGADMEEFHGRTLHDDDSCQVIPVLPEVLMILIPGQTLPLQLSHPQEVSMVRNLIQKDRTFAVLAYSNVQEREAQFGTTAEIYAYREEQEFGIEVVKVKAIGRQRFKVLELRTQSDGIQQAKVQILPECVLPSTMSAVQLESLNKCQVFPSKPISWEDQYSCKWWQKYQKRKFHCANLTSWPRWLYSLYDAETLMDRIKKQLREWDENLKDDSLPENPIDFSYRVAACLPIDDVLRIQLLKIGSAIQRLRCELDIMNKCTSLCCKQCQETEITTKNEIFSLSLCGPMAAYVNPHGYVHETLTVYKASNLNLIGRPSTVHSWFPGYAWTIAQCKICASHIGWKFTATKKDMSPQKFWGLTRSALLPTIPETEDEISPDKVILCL

Row | DC50 [1] [nM] | Emax [2] [%] | DC50 [3] [nM] | Emax [4] [%] | DC50 [5] [nM] | Emax [6] [%] | Activity [7] [%] | SMILES
1 | 0.9 | 94 | 0.8 | 97 | 14 | 83 | – | CN1CCN([C@@H]2CCCN(c3cnc(C(N)=O)c(Nc4ccc(N5CC6(C5)CN(c5ccc7c(c5)C(=O)N(C5CCC(=O)NC5=O)C7=O)C6)cc4)n3)C2)C1=O (some centres undefined)
2 | 50 | 79 | – | – | – | – | – | Cn1cc(-c2ccnc(-n3ncc4cc(C(C)(C)C)cc(F)c4c3=O)c2CO)cc(Nc2cc3n(n2)CCN(C(=O)CCOCCCc2cccc4c2CN(C2CCC(=O)NC2=O)C4=O)C3)c1=O (centres undefined)
3 | 2880 | 51 | – | – | – | – | – | Cc1cccc(C[C@@H](NC(=O)c2ccc3[nH]ncc3c2)C(=O)N2Cc3[nH]c4ccccc4c3C[C@@H]2C(=O)NCCOCCOCCOCCOCCOCCOCCOCCNc2cccc3c2C(=O)N(C2CCC(=O)NC2=O)C3=O)c1 (some centres undefined)
4 | 2.4 | 95 | 1.2 | 96 | 14 | 86 | 68 | CN1CCN([C@@H]2CCCN(c3cnc(C(N)=O)c(Nc4ccc5c(c4)CCN(CC4CCN(c6ccc7c(c6)C(=O)N(C6CCC(=O)NC6=O)C7=O)CC4)C5)n3)C2)C1=O (some centres undefined)
5 | > 10000 | < 20 | – | – | – | – | – | Cc1[nH]c2c(C(N)=O)ccc(N3CCC[C@H](NC(=O)CCCCCCc4cccc5c4CN(C4CCC(=O)NC4=O)C5=O)C3)c2c1C (some centres undefined)
6 | 1.6 | 90 | – | – | 40 | 85 | – | CN1CCN([C@@H]2CCCN(c3cnc(C(N)=O)c(Nc4ccc(C5CCN(C[C@H]6CC[C@H](Nc7cccc8c7C(=O)N(C7CCC(=O)NC7=O)C8=O)CC6)CC5)cc4)n3)C2)C1=O (some centres undefined)
7 | 7 | 88 | – | – | > 2000 | 31 | – | CN1CCN([C@@H]2CCCN(c3cnc(C(N)=O)c(Nc4ccc(C5CCN(C[C@H]6CC[C@@H](Nc7cccc8c7C(=O)N(C7CCC(=O)NC7=O)C8=O)CC6)CC5)cc4)n3)C2)C1=O (some centres undefined)
8 | 0.9 | 95 | 0.53 | 96 | 28 | 79 | 26 | CN1CCN([C@@H]2CCCN(c3cnc(C(N)=O)c(Nc4ccc(C5CN(C6CCN(c7ccc8c(c7)C(=O)N(C7CCC(=O)NC7=O)C8=O)CC6)C5)cc4)n3)C2)C1=O (some centres undefined)
9 | 2.4 | 95 | – | – | 11 | 87 | – | CN1CCN([C@@H]2CCCN(c3cnc(C(N)=O)c(Nc4ccc(C5CCN(CCCNc6cccc7c6C(=O)N(C6CCC(=O)NC6=O)C7=O)CC5)cc4)n3)C2)C1=O (some centres undefined)
10 | – | – | 0.63 | 96 | – | – | 48 | CN1CCN([C@@H]2CCCN(c3cnc(C(N)=O)c(Nc4cnn(C5CCN(CC6CCN(c7ccc8c(c7)C(=O)N(C7CCC(=O)NC7=O)C8=O)CC6)CC5)c4)n3)C2)C1=O (some centres undefined)
11 | – | – | 1.7 | 95 | – | – | 24 | NC(=O)c1ncc(-c2nccs2)nc1Nc1ccc(C2CCN(C[C@H]3CCN(c4ccc5c(c4)C(=O)N(C4CCC(=O)NC4=O)C5=O)C3)CC2)cc1 (some centres undefined)
12 | – | – | 17 | 76 | – | – | – | CN1CCN([C@@H]2CCCN(c3cnc(C(N)=O)c(Nc4ccc(C5CCN(Cc6ccc7c(c6)C(=O)N(C6CCC(=O)NC6=O)C7=O)CC5)cc4)n3)C2)C1=O (some centres undefined)
13 | 6.3 | 80 | – | – | – | 99 | – | CN1CCN([C@@H]2CCCN(c3cnc(C(N)=O)c(Nc4ccc(C5CCN(C(=O)CCOCCNc6cccc7c6C(=O)N(C6CCC(=O)NC6=O)C7=O)CC5)cc4)n3)C2)C1=O (some centres undefined)
